± gives the expanded uncertainty stated by the source.
Details: 263.49 K, Liquid, Vibrating tube method

Structure (SMILES): FC(F)=C(F)C(F)(F)F [hexafluoropropene]
- mass density (1283.2 kPa): 1467.96 ± 1.5 kg/m3
- mass density (1321.2 kPa): 1468.22 ± 1.5 kg/m3
- mass density (1359 kPa): 1468.47 ± 1.5 kg/m3
- mass density (1389.9 kPa): 1468.56 ± 1.5 kg/m3
- mass density (1425.3 kPa): 1468.74 ± 1.5 kg/m3
- mass density (1461.6 kPa): 1468.94 ± 1.5 kg/m3
- mass density (1497.9 kPa): 1469.16 ± 1.5 kg/m3
- mass density (1539.1 kPa): 1469.32 ± 1.5 kg/m3
- mass density (1576.4 kPa): 1469.48 ± 1.5 kg/m3
- mass density (1610 kPa): 1469.68 ± 1.5 kg/m3
- mass density (1646.8 kPa): 1469.96 ± 1.5 kg/m3
- mass density (1683.2 kPa): 1470.1 ± 1.5 kg/m3
- mass density (1718.2 kPa): 1470.09 ± 1.5 kg/m3
- mass density (1769.7 kPa): 1470.55 ± 1.5 kg/m3
- mass density (1804.7 kPa): 1470.64 ± 1.5 kg/m3
- mass density (1839 kPa): 1470.88 ± 1.5 kg/m3
- mass density (1873.5 kPa): 1471.02 ± 1.5 kg/m3
- mass density (1912.3 kPa): 1471.22 ± 1.5 kg/m3
- mass density (1948.3 kPa): 1471.32 ± 1.5 kg/m3
- mass density (1983.7 kPa): 1471.42 ± 1.5 kg/m3
- mass density (2017.6 kPa): 1471.69 ± 1.5 kg/m3
- mass density (2077.4 kPa): 1472.02 ± 1.5 kg/m3
- mass density (2137.9 kPa): 1472.31 ± 1.5 kg/m3
- mass density (2195.3 kPa): 1472.62 ± 1.5 kg/m3
- mass density (2252 kPa): 1472.79 ± 1.5 kg/m3
- mass density (2309.6 kPa): 1473.18 ± 1.5 kg/m3
- mass density (2367.3 kPa): 1473.43 ± 1.5 kg/m3
- mass density (2430.6 kPa): 1473.71 ± 1.5 kg/m3
- mass density (2489.1 kPa): 1474.06 ± 1.5 kg/m3
- mass density (2551.6 kPa): 1474.23 ± 1.5 kg/m3
- mass density (2614.8 kPa): 1474.71 ± 1.5 kg/m3
- mass density (2675.4 kPa): 1474.88 ± 1.5 kg/m3
- mass density (2733.4 kPa): 1475.13 ± 1.5 kg/m3
- mass density (2790.5 kPa): 1475.34 ± 1.5 kg/m3
- mass density (2848.5 kPa): 1475.67 ± 1.5 kg/m3
- mass density (2905.6 kPa): 1475.93 ± 1.5 kg/m3
- mass density (2969.6 kPa): 1476.29 ± 1.5 kg/m3
- mass density (3029.8 kPa): 1476.52 ± 1.5 kg/m3
- mass density (3093.3 kPa): 1476.76 ± 1.5 kg/m3
- mass density (3152.2 kPa): 1477.08 ± 1.5 kg/m3
- mass density (3211.2 kPa): 1477.32 ± 1.5 kg/m3
- mass density (3270.4 kPa): 1477.64 ± 1.5 kg/m3
- mass density (3327.3 kPa): 1477.91 ± 1.5 kg/m3
- mass density (3384.6 kPa): 1478.13 ± 1.5 kg/m3
- mass density (3443.8 kPa): 1478.55 ± 1.5 kg/m3
- mass density (3501.1 kPa): 1478.67 ± 1.5 kg/m3
- mass density (3558.2 kPa): 1479.03 ± 1.5 kg/m3
- mass density (3616.7 kPa): 1479.25 ± 1.5 kg/m3
- mass density (3674.3 kPa): 1479.49 ± 1.5 kg/m3
- mass density (3737.9 kPa): 1479.79 ± 1.5 kg/m3
- mass density (3796.5 kPa): 1480.12 ± 1.5 kg/m3
- mass density (3856.1 kPa): 1480.36 ± 1.5 kg/m3
- mass density (3913.3 kPa): 1480.59 ± 1.5 kg/m3
- mass density (3976.1 kPa): 1480.92 ± 1.5 kg/m3
- mass density (4010.9 kPa): 1481.02 ± 1.5 kg/m3
- mass density (4071.8 kPa): 1481.39 ± 1.5 kg/m3
- mass density (4136 kPa): 1481.55 ± 1.5 kg/m3
- mass density (4197.2 kPa): 1481.92 ± 1.5 kg/m3
- mass density (4261.2 kPa): 1482.25 ± 1.5 kg/m3
- mass density (4322.1 kPa): 1482.4 ± 1.5 kg/m3
- mass density (4382.2 kPa): 1482.79 ± 1.5 kg/m3
- mass density (4447.1 kPa): 1482.98 ± 1.5 kg/m3
- mass density (4507.5 kPa): 1483.36 ± 1.5 kg/m3
- mass density (4568.4 kPa): 1483.61 ± 1.5 kg/m3
- mass density (4635.4 kPa): 1483.93 ± 1.5 kg/m3
- mass density (4696.7 kPa): 1484.25 ± 1.5 kg/m3
- mass density (4757 kPa): 1484.43 ± 1.5 kg/m3
- mass density (4816.4 kPa): 1484.73 ± 1.5 kg/m3
- mass density (4881.5 kPa): 1484.9 ± 1.5 kg/m3
- mass density (4946.3 kPa): 1485.39 ± 1.5 kg/m3
- mass density (5104.8 kPa): 1485.97 ± 1.5 kg/m3
- mass density (5190.1 kPa): 1486.45 ± 1.5 kg/m3
- mass density (5273.8 kPa): 1486.72 ± 1.5 kg/m3
- mass density (5369.3 kPa): 1487.1 ± 1.5 kg/m3
- mass density (5456.3 kPa): 1487.53 ± 1.5 kg/m3
- mass density (5538.4 kPa): 1487.84 ± 1.5 kg/m3
- mass density (5622.6 kPa): 1488.18 ± 1.5 kg/m3
- mass density (5711.1 kPa): 1488.61 ± 1.5 kg/m3
- mass density (5793.3 kPa): 1489.06 ± 1.5 kg/m3
- mass density (5877.9 kPa): 1489.31 ± 1.5 kg/m3
- mass density (5963.2 kPa): 1489.67 ± 1.5 kg/m3
- mass density (6047.6 kPa): 1490.11 ± 1.5 kg/m3
- mass density (6129.9 kPa): 1490.42 ± 1.5 kg/m3
- mass density (6210.8 kPa): 1490.7 ± 1.5 kg/m3
- mass density (6292.4 kPa): 1491.15 ± 1.5 kg/m3
- mass density (6372.6 kPa): 1491.45 ± 1.5 kg/m3
- mass density (6452.8 kPa): 1491.79 ± 1.5 kg/m3
- mass density (6538.6 kPa): 1492.18 ± 1.5 kg/m3
- mass density (6628.4 kPa): 1492.5 ± 1.5 kg/m3
- mass density (6710.5 kPa): 1492.84 ± 1.5 kg/m3
- mass density (6798.1 kPa): 1493.29 ± 1.5 kg/m3
- mass density (6878.8 kPa): 1493.62 ± 1.5 kg/m3
- mass density (6965.4 kPa): 1493.98 ± 1.5 kg/m3
- mass density (7052.5 kPa): 1494.32 ± 1.5 kg/m3
- mass density (7137.8 kPa): 1494.61 ± 1.5 kg/m3
- mass density (7224.6 kPa): 1495 ± 1.5 kg/m3
- mass density (7315.1 kPa): 1495.44 ± 1.5 kg/m3
- mass density (7400.9 kPa): 1495.77 ± 1.5 kg/m3
- mass density (7483.2 kPa): 1496.09 ± 1.5 kg/m3
- mass density (7573.2 kPa): 1496.53 ± 1.5 kg/m3
- mass density (7663 kPa): 1496.86 ± 1.5 kg/m3
- mass density (7746.1 kPa): 1497.24 ± 1.5 kg/m3
- mass density (7835.3 kPa): 1497.57 ± 1.5 kg/m3
- mass density (7920.3 kPa): 1497.86 ± 1.5 kg/m3
- mass density (8008.2 kPa): 1498.24 ± 1.5 kg/m3
- mass density (8089.2 kPa): 1498.57 ± 1.5 kg/m3
- mass density (8180.4 kPa): 1498.95 ± 1.6 kg/m3
- mass density (8262.3 kPa): 1499.34 ± 1.6 kg/m3
- mass density (8343 kPa): 1499.65 ± 1.6 kg/m3
- mass density (8431 kPa): 1499.96 ± 1.6 kg/m3
- mass density (8519.4 kPa): 1500.29 ± 1.6 kg/m3
- mass density (8604.9 kPa): 1500.75 ± 1.6 kg/m3
- mass density (8687 kPa): 1500.96 ± 1.6 kg/m3
- mass density (8773.6 kPa): 1501.36 ± 1.6 kg/m3
- mass density (8859.6 kPa): 1501.69 ± 1.6 kg/m3
- mass density (8940.8 kPa): 1502.04 ± 1.6 kg/m3
- mass density (9033.4 kPa): 1502.38 ± 1.6 kg/m3
- mass density (9121.4 kPa): 1502.79 ± 1.6 kg/m3
- mass density (9202.4 kPa): 1503.09 ± 1.6 kg/m3
- mass density (9288.6 kPa): 1503.44 ± 1.6 kg/m3
- mass density (9371.7 kPa): 1503.79 ± 1.6 kg/m3
- mass density (9460.9 kPa): 1504.15 ± 1.6 kg/m3
- mass density (9501.4 kPa): 1504.21 ± 1.6 kg/m3
- mass density (9543.4 kPa): 1504.4 ± 1.6 kg/m3
- mass density (9588.9 kPa): 1504.56 ± 1.6 kg/m3
- mass density (9629.7 kPa): 1504.74 ± 1.6 kg/m3
- mass density (9675.2 kPa): 1504.91 ± 1.6 kg/m3
- mass density (9717.5 kPa): 1505.02 ± 1.6 kg/m3
- mass density (9760.3 kPa): 1505.19 ± 1.6 kg/m3
- mass density (9806 kPa): 1505.39 ± 1.6 kg/m3
- mass density (9849.5 kPa): 1505.65 ± 1.6 kg/m3
- mass density (9893.1 kPa): 1505.74 ± 1.6 kg/m3
- mass density (9933.7 kPa): 1505.89 ± 1.6 kg/m3

Reference: the NIST ThermoML archive (doi:10.1021/je900596d)
